Activity and IC50 data for 49 compounds are collected here from ChEMBL document CHEMBL1137486, “N4-phenyl modifications of N2-(2-hydroxyl)ethyl-6-(pyrrolidin-1-yl)-1,3,5-triazine-2,4-diamines enhance glucocerebrosidase inhibition by small molecules with potential as chemical chaperones for Gaucher disease” (Bioorg Med Chem Lett, 2007).

Activity calls are given as the source filed them. The rule behind the calls is not given here.

For one experiment, the target named is Alpha-galactosidase (Coffea arabica) (UniProt Q5DUH8). The experiment is described as follows: Inhibition of coffee bean alpha galactosidase upto 77 uM.
Sequence of Alpha-galactosidase (Coffea arabica) (Q5DUH8 as listed by the source): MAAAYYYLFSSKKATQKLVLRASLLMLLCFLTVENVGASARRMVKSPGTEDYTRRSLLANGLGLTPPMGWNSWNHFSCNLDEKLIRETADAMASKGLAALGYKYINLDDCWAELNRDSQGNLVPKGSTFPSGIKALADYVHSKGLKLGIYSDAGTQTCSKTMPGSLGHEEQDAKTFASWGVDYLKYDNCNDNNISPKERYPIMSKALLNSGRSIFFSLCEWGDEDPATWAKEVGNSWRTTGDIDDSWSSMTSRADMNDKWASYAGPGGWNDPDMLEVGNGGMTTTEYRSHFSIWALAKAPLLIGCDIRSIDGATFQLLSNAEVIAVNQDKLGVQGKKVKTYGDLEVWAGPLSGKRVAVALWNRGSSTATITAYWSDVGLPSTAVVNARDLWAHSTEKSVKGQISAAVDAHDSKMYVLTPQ
With `CC(C)(C)Oc1ccccc1Nc1nc(NCCO)nc(N2CCCC2)n1`, the outcome was inactive.

The next experiment addresses T1, Lysosomal acid glucosylceramidase (Homo sapiens) (UniProt P04062).
T1 sequence (whole entry): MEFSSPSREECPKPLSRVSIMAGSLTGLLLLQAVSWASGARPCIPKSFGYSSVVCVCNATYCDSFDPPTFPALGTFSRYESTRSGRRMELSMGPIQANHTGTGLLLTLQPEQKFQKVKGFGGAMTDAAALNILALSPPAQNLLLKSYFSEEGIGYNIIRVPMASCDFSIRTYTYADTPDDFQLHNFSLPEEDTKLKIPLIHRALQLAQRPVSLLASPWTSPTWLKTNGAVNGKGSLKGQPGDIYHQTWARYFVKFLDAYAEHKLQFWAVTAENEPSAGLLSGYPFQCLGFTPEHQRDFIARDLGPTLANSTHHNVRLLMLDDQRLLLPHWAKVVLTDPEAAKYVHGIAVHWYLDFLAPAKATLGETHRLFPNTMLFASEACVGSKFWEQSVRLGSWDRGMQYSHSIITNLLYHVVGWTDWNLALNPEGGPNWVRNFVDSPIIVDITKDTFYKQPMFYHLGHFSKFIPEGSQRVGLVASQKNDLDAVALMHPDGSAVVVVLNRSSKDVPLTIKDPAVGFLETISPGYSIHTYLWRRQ
The experiment can be described thus: (§1) Inhibition of glucocerebrosidase.
`COc1ccc(Cl)cc1Nc1nc(N(CCO)CCO)nc(N2CCCC2)n1`: the outcome was inactive.

With `COc1ccc(Cl)cc1Nc1nc(NCc2ccccc2)nc(N2CCCC2)n1`, the outcome was inactive.

For the compound `COc1ccccc1Nc1nc(NCCNC(C)=O)nc(N2CCCC2)n1`, the outcome was inactive.

For the compound `COC(=O)CNc1nc(Nc2ccccc2OC)nc(N2CCCC2)n1`, the outcome was inactive.

In the case of `O=[N+]([O-])c1ccccc1Nc1nc(NCCO)nc(N2CCCC2)n1`, the outcome was inactive.

Turning to `COc1ccccc1Nc1nc(NCCCCO)nc(N2CCCC2)n1`, the outcome was inactive.

Turning to `CCN(CC)c1nc(NCCO)nc(Nc2cc(Cl)ccc2OC)n1`, the result was inactive.

On to `COc1ccc(Cl)cc1Nc1nc(NCc2ccco2)nc(N2CCCC2)n1`, for which the result was inactive.

`COc1ccc(Cl)cc1Nc1nc(N)nc(N2CCCC2)n1`: the outcome was inactive.

On to `COCCNc1nc(Nc2cc(Cl)ccc2OC)nc(N2CCCC2)n1`, for which the result was inactive.

As to `NC(=O)c1ccccc1Nc1nc(NCCO)nc(N2CCCC2)n1`, the outcome was inactive.

On to `COc1ccccc1Nc1nc(NCC(N)=O)nc(N2CCCC2)n1`, for which the outcome was inactive.

Turning to `CC(=O)Nc1ccccc1Nc1nc(NCCO)nc(N2CCCC2)n1`, the outcome was inactive.

Regarding `COc1ccc(Cl)cc1Nc1nc(NCCO)nc(N2CCCCCC2)n1`, the outcome was inactive.

The target of another experiment is T2, Lysosomal acid glucosylceramidase (Homo sapiens, UniProt P04062).
T2 sequence (P04062 whole entry): T1 sequence (whole entry)
The description is as §1.
With `OCCNc1nc(Nc2ccc(Cl)cc2)nc(N2CCCC2)n1`, the IC50 came out at 6.34 µM.

Take `CCCCNc1nc(NCCO)nc(Nc2ccccc2OC)n1`: the IC50 is 6.1 µM. This IC50 and that of the compound before are within 1.5-fold of each other.

With `COc1ccc(Nc2nc(NCCO)nc(N3CCCC3)n2)cc1`, the IC50 came out at 8.8 µM.

For the compound `OCCNc1nc(Nc2cc(-c3ccccc3)ccc2O)nc(N2CCCC2)n1`, half-maximal inhibition (IC50) was put at 0.37 µM.

`COc1cccc(Nc2nc(NCCO)nc(N3CCCC3)n2)c1` displayed an IC50 of 8.25 µM. Compared with the last compound, the IC50 is about 22-fold higher.

With `OCCNc1nc(Nc2ccccc2Oc2ccccc2)nc(N2CCCC2)n1`, half-maximal inhibition (IC50) was put at 21.7 µM.

`CC(C)(C)Oc1ccccc1Nc1nc(NCCO)nc(N2CCCC2)n1` showed an IC50 of 0.33 µM.

Take `OCCNc1nc(Nc2ccccc2OCc2ccccc2)nc(N2CCCC2)n1`: the IC50 is 31.4 µM.

In turn, `CSc1ccccc1Nc1nc(NCCO)nc(N2CCCC2)n1` gave an IC50 of 2.39 µM. Compared with the last compound, the IC50 is about 13-fold lower.

`OCCNc1nc(Nc2ccccc2)nc(N2CCCC2)n1` showed an IC50 of 16.5 µM. Compared with the last compound, the IC50 is about 6.9-fold higher.

`COc1ccccc1Nc1nc(NCC(C)O)nc(N2CCCC2)n1` (configuration not stated) came in with an IC50 of 20.7 µM.

For the compound `CC(C)(C)Oc1ccc(Cl)cc1Nc1nc(NCCO)nc(N2CCCC2)n1`, half-maximal inhibition (IC50) was put at 1.04 µM. Against the preceding compound, the IC50 is about 20-fold lower.

Turning to `CCCCNc1nc(Nc2cc(Cl)ccc2OC)nc(N2CCCC2)n1`, the IC50 was found to be 7.77 µM. Against the preceding compound, the IC50 is about 7.5-fold higher.

`CCOc1ccccc1Nc1nc(NCCO)nc(N2CCCC2)n1` yielded an IC50 of 0.77 µM.

`OCCNc1nc(Nc2ccccc2OC(F)(F)F)nc(N2CCCC2)n1` registered an IC50 of 3.34 µM.

Consider `OCCNc1nc(Nc2ccccc2Cl)nc(N2CCCC2)n1`, for which the IC50 was determined as 29 µM.

`COc1ccccc1Nc1nc(NCCO)nc(N2CCCC2)n1` displayed an IC50 of 1.08 µM. This IC50 lies about 27-fold lower than the previous one.

In the case of `OCCNc1nc(Nc2cc(Cl)ccc2O)nc(N2CCCC2)n1`, half-maximal inhibition (IC50) was put at 0.73 µM.

Regarding `CC(C)Oc1ccc(Cl)cc1Nc1nc(NCCO)nc(N2CCCC2)n1`, it took 3.44 µM to reach half-maximal inhibition (IC50).

`COc1ccc(C(F)(F)F)cc1Nc1nc(NCCO)nc(N2CCCC2)n1` displayed an IC50 of 2.65 µM.

Regarding `COc1ccc(Cl)cc1Nc1nc(NCCO)nc(N2CCOCC2)n1`, half-maximal inhibition (IC50) required 12.1 µM.

`Cc1ccccc1Nc1nc(NCCO)nc(N2CCCC2)n1` gave an IC50 of 3.94 µM.

Compound `COc1ccccc1Nc1nc(NCC(O)Cc2ccccc2)nc(N2CCCC2)n1` (configuration not stated) displayed an IC50 of 6.8 µM.

The compound `COc1ccc(-c2ccccc2)cc1Nc1nc(NCCO)nc(N2CCCC2)n1` showed an IC50 of 2.22 µM.

As for `OCCNc1nc(Nc2cccc(Cl)c2)nc(N2CCCC2)n1`, the IC50 worked out at 6.69 µM.

`OCCNc1nc(Nc2ccccc2O)nc(N2CCCC2)n1` displayed a concentration for half-maximal inhibition (IC50) of 2 µM.

As to `COc1ccccc1Nc1nc(NCCO)nc(N2CCC2)n1`, it took 2.31 µM to reach half-maximal inhibition (IC50). The IC50 values of the last two compounds are within 1.5-fold of each other.

Turning to `COc1ccc(OC)c(Nc2nc(NCCO)nc(N3CCCC3)n2)c1`, the IC50 amounted to 1.53 µM.

The compound `COc1ccccc1Nc1nc(NCCO)nc(N2CCC(F)(F)C2)n1` registered an IC50 of 7.75 µM.

In turn, `Cc1ccc(Nc2nc(NCCO)nc(N3CCCC3)n2)cc1` showed an IC50 of 10 µM. This IC50 and that of the compound before are within 1.5-fold of each other.

Regarding `COc1ccc(Nc2nc(NCCO)nc(N3CCCC3)n2)c(OC)c1`, the IC50 was determined as 4.9 µM. Compared with the last compound, the IC50 is about 2-fold lower.

In turn, `COc1ccc(Cl)cc1Nc1nc(NCCO)nc(N2CCCCC2)n1` yielded an IC50 of 31.1 µM.

In the case of `COc1ccccc1Nc1nc(NCCO)nc(NCc2ccccc2)n1`, the midpoint of inhibition, the IC50, lay at 18.8 µM.

On to `CCOc1ccc(Cl)cc1Nc1nc(NCCO)nc(N2CCCC2)n1`, for which 0.96 µM corresponded to half-maximal inhibition (IC50).

For `Cc1cccc(Nc2nc(NCCO)nc(N3CCCC3)n2)c1`, it took 6.19 µM to reach half-maximal inhibition (IC50).

The next experiment relates to Oryza sativa. The experiment is described as follows: Inhibition of rice alpha glucosidase upto 77 uM.
In the case of `CC(C)(C)Oc1ccccc1Nc1nc(NCCO)nc(N2CCCC2)n1`, the outcome was inactive.

The next experiment addresses T3, Beta-hexosaminidase subunit alpha (Bos taurus) (UniProt Q0V8R6).
T3 sequence (whole entry): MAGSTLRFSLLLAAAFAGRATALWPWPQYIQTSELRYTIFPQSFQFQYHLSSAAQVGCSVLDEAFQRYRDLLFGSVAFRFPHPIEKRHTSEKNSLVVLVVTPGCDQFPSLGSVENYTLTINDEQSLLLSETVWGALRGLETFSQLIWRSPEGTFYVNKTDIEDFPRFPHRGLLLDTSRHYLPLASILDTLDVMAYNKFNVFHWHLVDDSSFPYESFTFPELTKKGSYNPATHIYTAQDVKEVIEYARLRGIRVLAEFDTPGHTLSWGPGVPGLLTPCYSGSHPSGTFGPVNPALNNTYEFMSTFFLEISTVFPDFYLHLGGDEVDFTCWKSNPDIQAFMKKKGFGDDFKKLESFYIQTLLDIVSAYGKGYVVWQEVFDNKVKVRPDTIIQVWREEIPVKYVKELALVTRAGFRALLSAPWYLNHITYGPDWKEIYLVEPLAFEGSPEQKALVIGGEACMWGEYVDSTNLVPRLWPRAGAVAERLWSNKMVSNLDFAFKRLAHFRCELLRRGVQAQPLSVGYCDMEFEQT
The experiment can be described thus: Inhibition of bovine beta hexosaminidase upto 77 uM.
Turning to `CC(C)(C)Oc1ccccc1Nc1nc(NCCO)nc(N2CCCC2)n1`, the result was inactive.
